How the values were obtained:
[1] = test system: bile flow and bile solids; experiment: Choleretic activity: bile flow and bile solids after bile duct cannulation in normal anaesthetised rats; assay type: in vivo; conditions: 50 mg kg-1 i.d., bile collected 0-5 hours, mean ±SE
Source text: The liver, by producing bile, plays an important role in digestion. The presence of bile in the intestine is necessary to accomplish the digestion and absorption of fats as well as absorption of the fat-soluble vitamins- A, D, E & K. Bile is also an important vehicle of excretion. It removes many drugs, toxins, bile pigments and various inorganic substances either derived from the diet or synthesized by the body as cholesterol or as cholic acid.
Effect on the liver bile flow of test drug and that of vehicle is carried out after cannulating the bile duct in normal anaesthesied rats. Bile collected is from each animal from 0-5 hours (Klaassen, 1969, Donal et al.1953). (Table 5)

[2] = test system: 'Acetaminophen' (APAP) induced hepatotoxicity; experiment: Hepatoprotective activity (in vivo) against acetaminophen (paracetamol) induced hepatotoxicity after diethyl-ether inhalation; conditions: mice; for Serum parameters GOT / Serum parameters GPT: unit is µmole pyruvate/min/L; for hepatoprotective activity percent, ALP / hepatoprotective activity percent, Bilirubin / hepatoprotective activity percent, GOT / hepatoprotective activity percent, GPT / hepatoprotective activity percent, Glutathione / hepatoprotective activity percent, Lipid peroxidation / hepatoprotective activity percent, Triglycerides: APAP, 50 mg kg-1 p.o., H = [1-(TC-V/VC-V)] × 100
Method: i. Animals: The pharmacological studies are conducted on Wistar albino rats (150-180g) and Swiss albino mice (25-30g) of either sex, colony - bred in the Institute's animal house. After procurement, all the animals are divided into different groups and are left for one week for acclimatization to experimentation room and are maintained on standard conditions (23±2°C, 60-70 % relative humidity and 12 h photo period). The animals are fed with standard rodents pellet diet and water ad libitum. There are six animals in each group except for general behaviour and acute toxicity studies where ten animals are used in each group.
Paracetamol (APAP, acetaminophen): It is a therapeutic agent widely used as analgesic/antipyretic drug. When taken in large doses it causes hepatic necrosis which leads to biochemical changes having clinical features similar to those of acute viral hepatitis. The similar effect is observed in animals. The toxic effect can be potentiated if it is given several hours after the anesthetic ether inhalation (Wells et. al., 1986).
Liver injury is induced by injecting paracetamol (200 mg.kg^-1) interaperitoneally in normal saline (pH 9.4) six hour after inhalation of anesthetic ether (4ml/4min/6animals) in a closed chamber. The control animals received the equal volume of vehicle. (Table 2)
Freshly prepared suspension (1%, w/v) in 0.2% gum acacia in normal saline is used for all the experiments except for toxicity studies where (10 %, w/v) suspension is used. Silymarin suspension (1%, w/v) in 0.2 % gum acacia is used as a reference standard (positive control).
The doses of TCA and APO individually and in mixture, silymarin (50 mg/kg, p.o. each) and vehicle (normal saline) are fed to different groups of mice at 72 hours, 48 hours and 24 hours, 1 hour before diethyl ether inhalation and 1hour after hepatotoxin (paracetamol, 200 mg.kg^-1, i.p.) given 6 hours after exposure to diethyl- ether. Blood is collected from orbital sinus in all the animals 18 hours after last treatment and serum separated for different estimations. A portion of the liver is processed for histopathological studies. (Table 2)
• GPT and GOT: Pyruvate formed by transamination reaction is determined spectrophotometrically after reaction with 2,4-dinitrophenylhydrazine (Reitman and Frankel, 1957). • ALP : p-nitrophenol formed in alkaline medium is measured spectrophotometrically using p-nitrophenyl phosphate as substrate (Walter and Schutt, 1974). • Bilirubin : Total bilirubin is measured by diazotization reaction with NaNO2 (Malloy and Evelyn, 1937) • Triglycerides : Triglycerides from serum are extracted with isopropanol and sopanified with KOH. The liberated glycerol is converted to formaldehyde by periodate and determined after reaction with acetyl acetone. Triolein is used as standard (Neri and Firings, 1973). • Glutathione: It is determined after deproteination by reaction with DTNB (Ellman 1959 as modified by David 1987). • Lipid peroxidation: Thiobarbituric acid reacting substances are determined spectrophotometrically at 535 nm. Buege. and Aust. (1978).
Hepatoprotective activity (H) is calculated by the following equation: H = [1-(TC-V/VC-V)] × 100 [formula]
Where TC, VC, and V are drug + toxin, vehicle + toxin and vehicle treated groups of animals respectively.

[3] = test system: galactosamine, paracetamol and CCl4 as hepatotoxins; experiment: Earlier RRL Jammu study: hepatoprotective effect against galactosamine, paracetamol and CCl4 as hepatotoxins, silymarin as reference; assay type: in vivo; conditions: synthesized constituent; silymarin as reference material
[4] = 50 mg kg-1 p.o. at 72 h, 48 h, 24 h, 1h before diethyl-ether and 1 h after APAP 200 mg kg-1 i.p., mean ± S.E.

## COc1cc(C(C)=O)ccc1O [APO, Apocynin]
[1]
  Bile parameters % Increase (as compared to normal) Bile flow: 27.39±2.05 ml%
  Bile parameters % Increase (as compared to normal) Bile solids: 24.05±2.76 mg%
[2]; [4]
  Hepatic parameters Glutathione: 4.60±0.42 µ mole GSH/g liver
  Hepatic parameters Lipid peroxidation: 48.32±2.13 n moles MDA/g liver
  Serum parameters ALP: 29.71±1.89 µ mole of p-nitroplenol formed/min/ L
  Serum parameters Bilirubin: 0.43±0.01 mg %
  Serum parameters Triglycerides: 30.50±1.36 mg %
  Serum parameters GOT: 755.04±112.04 Units
  Serum parameters GPT: 1334.72±98.34 Units
[2]
  hepatoprotective activity percent, ALP: (67.91) percent
  hepatoprotective activity percent, Bilirubin: (42.59) percent
  hepatoprotective activity percent, GOT: (36.07) percent
  hepatoprotective activity percent, GPT: (42.27) percent
  hepatoprotective activity percent, Glutathione: (42.60) percent
  hepatoprotective activity percent, Lipid peroxidation: (38.34) percent
  hepatoprotective activity percent, Triglycerides: (36.68) percent

## CCCCCCCC/C=C/CCCCCCCCCCCCCC(=O)O [TCA, trans-tetracos-15-enoic acid]
[3]
  hepatoprotective effect against galactosamine, paracetamol and CCl4 as hepatotoxins: dose related hepatoprotective effect
[1]
  Bile parameters % Increase (as compared to normal) Bile flow: 08.23±1.71 ml%
  Bile parameters % Increase (as compared to normal) Bile solids: 13.40±1.53 mg%
[2]; [4]
  Hepatic parameters Glutathione: 4.59±0.45 µ mole GSH/g liver
  Serum parameters ALP: 34.95±1.89 µ mole of p-nitroplenol formed/min/ L
  Serum parameters Bilirubin: 0.355±0.01 mg %
  Serum parameters Triglycerides: 23.53±1.77 mg %
  Serum parameters GOT: 561.83±51.52 Units
  Serum parameters GPT: 1008.04±63.66 Units
[2]
  hepatoprotective activity percent, ALP: (52.96) percent
  hepatoprotective activity percent, Bilirubin: (56.48) percent
  hepatoprotective activity percent, GOT: (54.92) percent
  hepatoprotective activity percent, GPT: (57.99) percent
  hepatoprotective activity percent, Glutathione: (42.35) percent
  hepatoprotective activity percent, Lipid peroxidation: (55.48) percent
  hepatoprotective activity percent, Triglycerides: (66.05) percent

Source: patent publication EP1509285B1, “SYNERGISTIC COMPOSITION OF TRANS-TETRACOS-15-ENOIC ACID AND APOCYNIN AND USE THEREOF” (COUNCIL OF SCIENTIFIC AND INDUSTRIAL RESEARCH, priority 2002, dated 2003)
